Results: US20050085447A1, “Pyrido[3,4-d]pyrimidine derivatives as matrix metalloproteinase-13 inhibitors” (Warner-Lambert Company LLC, priority 2003, published 2005)

Assays:
Assay type in all cases: biochemical
MMP-14 catalytic domain = target: T1, MMP-14 catalytic domain (Homo sapiens, UniProt P50281); assay: Thiopeptolide substrate hydrolysis inhibition assay, MMP-14 catalytic domain; details: read-out: MMP-14CD IC50
T1 construct: MMP-14 catalytic domain, and MMP-17 catalytic domain
Excerpt: (§1) The assay methods of Biological Examples 1-4 measure the amount by which a test compound reduces the hydrolysis of a thiopeptolide substrate catalyzed by a matrix metalloproteinase enzyme or catalytic domain thereof. It has been shown previously by Ye Qi-Zhuang, Hupe D., and Johnson L. (Current Medicinal Chemistry, 1996;3:407-418) that inhibitor activity against a catalytic domain of an MMP is predictive of the inhibitor activity against the respective full-length MMP enzyme. The methods described below for the inhibition of MMP-13 may also be adapted and used to determine the ability of the compounds of Formula I to inhibit other matrix metalloproteases such as MMP-1, MMP-2, MMP-3, MMP-7, MMP-8, MMP-9, MMP-12, MMP-14, MMP-17, and the like.
(§2) Thiopeptolide substrates show virtually no decomposition or hydrolysis at or below neutral pH in the absence of a matrix metalloproteinase enzyme. A typical thiopeptolide substrate commonly utilized for assays is Ac-Pro-Leu-Gly-thioester-Leu-Leu-Gly-OEt. A 100 μL assay mixture will contain 50 mM of N-2-hydroxyethylpiperazine-N′-2-ethanesulfonic acid buffer (“HEPES,” pH 7.0), 10 mM CaCl2, 100 μM thiopeptolide substrate, and 1 mM 5,5′-dithio-bis-(2-nitro-benzoic acid) (DTNB). […] The change in absorbance at 405 nm is monitored on a Thermo Max microplate reader (molecular Devices, Menlo Park, Calif.) at room temperature (22° C.). The calculation of the amount of hydrolysis of the thiopeptolide substrate is based on E412=13600 M^−1 cm^−1 for the DTNB-derived product 3-carboxy-4-nitrothiophenoxide. Assays are carried out with and without matrix metalloproteinase inhibitor compounds, and the amount of hydrolysis is compared for a determination of inhibitory activity of the test compounds.
(§3) Test compounds were evaluated at various concentrations in order to determine their respective IC50 values, the micromolar concentration of compound required to cause a 50% inhibition of catalytic activity of the respective enzyme.
(§4) Some representative compounds of Formula I have been evaluated for their ability to inhibit MMP-13, MMP-1FL, MMP-3CD, MMP-7FL, MMP-8FL, MMP-9FL, MMP-12CD, MMP-14CD, and/or MMP-17CD, wherein FL means full-length enzyme and CD means a catalytic domain of the full-length enzyme. Test compounds can be evaluated at various concentrations in order to determine their respective IC50 values, the micromolar concentration of compound required to cause a 50% inhibition of the hydrolytic activity of the respective enzyme.
(§5) Certain compounds of Formula I have also been assayed with MMP-1 full-length, MMP-3 catalytic domain, MMP-7 full-length, MMP-8 full-length, MMP-9 full-length, MMP-12 catalytic domain, MMP-14 catalytic domain, and MMP-17 catalytic domain. […] In Biological Table 2, the compound example numbers for the Compound Examples are indicated in the column labelled “Ex. No.”

MMP-9 full-length = target: T2, MMP-9 full-length (Homo sapiens, UniProt P14780); assay: Thiopeptolide substrate hydrolysis inhibition assay, MMP-9 full-length; details: full-length enzyme; read-out: MMP-9FL IC50
T2 construct: MMP-8 full-length, MMP-9 full-length, MMP-12 catalytic domain
T2 sequence (P14780 94-707): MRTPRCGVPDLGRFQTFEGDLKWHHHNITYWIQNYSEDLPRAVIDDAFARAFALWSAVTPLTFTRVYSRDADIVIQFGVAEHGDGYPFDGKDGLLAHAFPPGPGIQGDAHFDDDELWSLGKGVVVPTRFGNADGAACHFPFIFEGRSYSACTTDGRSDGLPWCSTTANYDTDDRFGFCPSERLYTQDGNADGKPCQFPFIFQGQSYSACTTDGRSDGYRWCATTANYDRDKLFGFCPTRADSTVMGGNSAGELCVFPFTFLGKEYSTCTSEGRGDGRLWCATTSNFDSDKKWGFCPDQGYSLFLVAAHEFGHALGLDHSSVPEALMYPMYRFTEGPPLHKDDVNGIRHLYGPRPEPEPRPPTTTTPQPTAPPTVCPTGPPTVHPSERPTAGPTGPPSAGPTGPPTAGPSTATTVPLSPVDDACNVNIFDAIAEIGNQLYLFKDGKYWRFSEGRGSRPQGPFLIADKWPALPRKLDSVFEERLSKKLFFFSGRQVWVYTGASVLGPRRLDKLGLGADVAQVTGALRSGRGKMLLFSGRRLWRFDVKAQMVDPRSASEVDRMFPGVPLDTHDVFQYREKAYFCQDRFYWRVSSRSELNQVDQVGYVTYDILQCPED
Excerpt: as §1, §2, §3, §4, §5

MMP-7 full-length = target: T3, MMP-7 full-length (Homo sapiens, UniProt P09237); assay: Thiopeptolide substrate hydrolysis inhibition assay, MMP-7 full-length; details: full-length enzyme; read-out: MMP-7FL IC50
T3 construct: MMP-3 catalytic domain, MMP-7 full-length, MMP-8 full-length
T3 sequence (P09237 95-267): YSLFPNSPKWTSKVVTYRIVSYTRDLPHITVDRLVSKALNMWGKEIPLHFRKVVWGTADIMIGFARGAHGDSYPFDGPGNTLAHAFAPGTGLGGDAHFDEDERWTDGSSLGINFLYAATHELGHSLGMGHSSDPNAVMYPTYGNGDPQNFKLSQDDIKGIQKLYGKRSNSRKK
Excerpt: as §1, §2, §3, §4, §5

Measured: IC50

COc1ccc(CNC(=O)c2cc3c(=O)n(Cc4ccc(C(=O)O)cc4)cnc3cn2)cc1 [Compound Example 1, 4-[6-(4-methoxy-benzylcarbamoyl)-4-oxo-4H-pyrido[3,4-d]pyrimidin-3-ylmethyl]-benzoic acid]
> 100 µM: all assays above
